Measurements: PMC9316000, “Preclinical Drug Pharmacokinetic, Tissue Distribution and Excretion Profiles of the Novel Limonin Derivate HY-071085 as an Anti-Inflammatory and Analgesic Candidate in Rats and Beagle Dogs” (Pharmaceuticals, 2022)
Entries after “also recorded” stand apart in the source; their conditions may differ.

Key:
[1] = Pharmacokinetics after single-dose intravenous administration in rats; type: in vivo, Sprague Dawley rats; details: S-IV 3.25 mg/kg; for AUC(0-inf) / AUC / MRT / half-life: rat, plasma; for AUC: read-out: AUC0-tn
Procedure: The PK parameters after the intravenous administration of 3.25 mg/kg HY-071085 (before use, prepared with 5% DMSO + 95% normal saline mixture) are listed in Table 1.
In vivo PK profiling in the rats: Sprague Dawley rats (approximately 177–221 g in weight) were purchased from Shanghai Xipur-Bikai Experimental Animal Co., Ltd. (Shanghai, China). Before the experiment, several rats were randomly divided into several groups, half males and half females in each group, fasting but free to drink water for 12 h. The dosage of the rats was dependent on the drug pharmacology: the HY-071085 active pharmaceutical ingredients were administered with a dosage volume of 0.25 mL/100 g body weight. The whole-blood samples were centrifuged at 8000 rpm for 5 min, and the plasma samples were separated and stored at –80 °C until the analysis.
(§1) According to the obtained plasma concentration time data, the pharmacokinetic parameters were calculated using Phoenix WinNonlin 8.1 software. The pharmacokinetic parameters—i.e., the area under the curve (AUC), mean residence time (MRT), clearance rate (Cl/F) and steady-state apparent distribution volume (Vss/F)—were calculated by the method of moments, which was estimated according to the following formulae: AUCtn=∑Ci+Ci−1ti−ti−1/2 AUC∞=AUCtn+Cm/λ AUMCtn=∑tiCi+ti−1Ci−1ti−ti−1/2 AUMC∞=AUMCtn+Ctntn/λ+1/λ^2 MRT=AUMC∞/AUC∞ Cl/F=Dose/AUC Vss/F=Cl∗MRT where Ctn is the plasma concentration of tn at the last point after administration, and the elimination rate constant was obtained by ln(concentration) time linear regression.
(§2) Due to the drug having significant individual differences in rats, it could not be uniformly fitted with a PK atrioventricular model; as such, the pharmacokinetic parameters analyzed in this study were calculated using a non-atrioventricular model. The pharmacokinetic parameters are defined as follows: Cmax is the maximum blood concentration after administration and absorption, Tmax is the time required to reach Cmax, t1/2 is the time required to eliminate half of the plasma drug concentration after the drug distribution in the body reaches equilibrium, Cl/F is the apparent clearance rate, AUC0-tn is the area under the blood concentration time curve within the dosing interval, AUC0-∞ is the area under the plasma concentration time curve from 0 to infinity, MRT is the average time that all drug molecules stay in the body, and Vss/F is the steady-state apparent distribution volume, which is the product of the clearance rate and average residence time.

[2] = Excretion in feces, urine and bile (material balance) in rats; type: in vivo, Sprague Dawley rats
Procedure: After the single-dose intragastric administration of HY-071085 (6.5 mg/kg) to male and female rats, their feces, urine and bile were collected at various time points within 24 h in order to analyze the excretion of HY-071085. The amount of unchanged parent compound recovered from the feces, urine and bile was negligible in rats (about 1.3% of the dose, Table 3).
Excretion in urine and feces (rats): The Sprague Dawley rats were aged approximately 6 weeks old and weighed 185–212 g at the onset of treatment. Urine and fecal samples were collected for the excretion study using metabolic cages. After the oral administration of 6.5 mg/kg HY-071085, urine and feces were collected at 0–6, 6–12 and 12–24 h. The urine volumes were recorded and transferred to centrifuge tubes. The fecal weights were recorded at each sampling period, and then those feces were dried, ground and mixed thoroughly. Then, 0.1 g feces was accurately weighed, mixed with 1 mL deionized water, and homogenized to be used as a fecal sample. All of the samples were stored at –80 °C until the analysis.
Excretion in bile (rats): The Sprague Dawley rats were approximately 6 weeks old and weighed 174–215 g at the onset of treatment. The rats were anesthetized with diethyl ether, and the bile duct was then cannulated for bile collection. After allowing recovery from surgery and anesthesia, these bile duct–cannulated rats were administered a single 6.5 mg/kg dose of HY-071085 by gastric gavage.

[3] = Pharmacokinetics after repeated-dose intragastric administration in beagle dogs; type: in vivo; details: R-IG 2.5 mg/kg
Procedure: AUC0-∞ was 195.41 ± 90.03 and 728.57 ± 270.64 h∙ng/mL, respectively (Table 2, Figure 10). […] On the fifth and seventh days before administration, the plasma concentration (valley concentration) was mostly below the lower limit of quantification (1 ng/mL).
In vivo PK profiling in dogs: Beagle dogs (approximately 8–10 kg in weight) were purchased from Jiangsu Yadong Experimental Animal Research Institute Co. Ltd (Nanjing, China). Before the experiment, several beagle dogs were randomly divided into several groups, half males and half females in each group. Four cycles of single-dose administration experiments were carried out, and the cleaning period was 3–5 days. Repeated-dose administration was carried out after the end of four cycles of single-dose administrations and cleaning periods. According to the dosage for the rats, the dosage for the beagle dogs was converted via the body surface area method. The HY-071085 active pharmaceutical ingredients were administered with a dosage volume of 2 mL/kg body weight. The whole-blood samples were centrifuged at 8000 rpm for 5 min, and the plasma samples were separated and stored at –80 °C until the analysis.
as §1, §2

[4] = Plasma protein binding, human plasma; type: in vitro ADME; details: mean, read-out: plasma protein binding rate (converted)
Procedure: The PPB rate in dogs was about 40% at different concentrations in the concentration range (50–400 ng/mL), and in rats it was about 75%. The PPB rate in human plasma varied greatly at different concentrations, ranging from 100% at a low drug concentration to 58% at a high drug concentration, as shown in Table 4.

[5] = gavage 6.5 mg/kg, within 24 h, % of the dose
[6] = both sexes, dog, plasma, po, 7 d

**Q.** For CC1(C)OC2CC(=O)OCC23C1C/C(=N\OCCN1CCOCC1)C1(C)C3CC[C@@]2(C)[C@H](c3ccoc3)OC(=O)C3OC312 (stereo partly drawn) [HY-071085, (12S,12aS,E)-12-(furan-3-yl)-6,6,8a,12a-tetramethyl-8-((2-morpholinoethoxy)imino)dodecahydro-1H,3H-oxireno [2,3-d]pyrano [4’,3’:3,3a]isobenzofuro [5,4-f]isochromene-3,10(9aH)-dione], which AUC(0-inf) ([1]; Sprague Dawley, female rats) is on record?
**A.** 684 ± 39.2 ng·h/mL

**Q.** What about the AUC ([1]; Sprague Dawley, female rats) of the same compound?
**A.** 682 ± 225 ng·h/mL

**Q.** And the AUC(0-inf) ([1]; Sprague Dawley, male rats)?
**A.** 740 ± 146 ng·h/mL

**Q.** What about the MRT ([1]; Sprague Dawley, male rats) of the same compound?
**A.** 17.4 ± 2.4 min

**Q.** And the AUC ([1]; Sprague Dawley, male rats)?
**A.** 739 ± 146 ng·h/mL

**Q.** What about the MRT ([1]; Sprague-Dawley, female rats) of the same compound?
**A.** 20.4 ± 3 min

**Q.** And the half-life ([1]; Sprague-Dawley, female rats)?
**A.** 20.4 ± 3 min

**Q.** What about the half-life ([1]; Sprague-Dawley, male rats) of the same compound?
**A.** 24 ± 6 min

**Q.** And the Cl/F ([1]; female rats)?
**A.** 79.3 ± 4.5 mL/min/kg

**Q.** What about the Vss/F ([1]; female rats) of the same compound?
**A.** 1.63 ± 0.17 L/kg

**Q.** What about the Cl/F ([1]; male rats) of the same compound?
**A.** 75 ± 11.8 mL/min/kg

**Q.** What about the Vss/F ([1]; male rats) of the same compound?
**A.** 1.31 ± 0.18 L/kg

**Q.** And the route of elimination ([2]; excretion and material balance)?
**A.** mainly eliminated as metabolites; also recorded: mainly eliminated by metabolism

**Q.** What about the “HY-071085 prototype recovered in bile” value ([2]; gavage 6.5 mg/kg, bile 0~8 h, % of the dose) of the same compound?
**A.** 0.206 ± 0.206%

**Q.** And the “HY-071085 prototype recovered in feces” value [2, 5]?
**A.** 0.812 ± 0.611%

**Q.** What about the “HY-071085 prototype recovered in urine” value [2, 5] of the same compound?
**A.** 0.254 ± 0.164%

**Q.** What about the “plasma concentration (valley concentration) before administration” value ([3]; fifth and seventh days, mostly below the lower limit of quantification) of the same compound?
**A.** < 1 ng/mL

**Q.** And the AUC(0-inf) [3, 6]?
**A.** 729 ± 271 ng·h/mL

**Q.** What about the CL/F at 7 d [3, 6] of the same compound?
**A.** 32.3 mL/min/kg

**Q.** What about the Cmax at 7 d [3, 6] of the same compound?
**A.** 445 ± 135 ng/mL

**Q.** What about the MRT at 7 d [3, 6] of the same compound?
**A.** 94.8 ± 8.4 min

**Q.** What about the Tmax at 7 d [3, 6] of the same compound?
**A.** 16.2 ± 9 min

**Q.** What about the half-life at 7 d [3, 6] of the same compound?
**A.** 64.8 ± 7.8 min

**Q.** What about the AUC ([3]; both sexes, dog, plasma, po, 7 d, read-out: AUC0-tn) of the same compound?
**A.** 723 ± 270 ng·h/mL

**Q.** And the Vd/F at 7 d ([3]; both sexes, dog, plasma, po, 7 d, read-out: Vss/F)?
**A.** 3.04 ± 1.19 L/kg

**Q.** What about the fraction unbound at 100 ng/mL ([4]; 100 ng/mL) of the same compound?
**A.** 0.267

**Q.** And the fraction unbound at 200 ng/mL ([4]; 200 ng/mL)?
**A.** 0.325

**Q.** And the fraction unbound at 400 ng/mL ([4]; 400 ng/mL)?
**A.** 0.384
